Paper PMC3372625 (Journal of Controlled Release, 2012)

Assays:
[1] = system: H9C2 cells; assay: Reactive oxygen species; type: cell-based; details: various concentrations of CoCl2; figure 2b
[2] = system: H9C2 cells; assay: Cell viability; type: cell-based; details: in the presence of CoCl2; figure 2c
[3] = system: cells; details: cited from earlier work

Row | Compound | generation of ROS [1] | CoCl2 toxicity (cell viability) [2] | cytotoxicity [3]
1 | [Cl][Co][Cl] [CoCl2, cobalt chloride] | dependent on the concentration of CoCl2 up to 25 μmol | no artifact caused by CoCl2 toxicity | –
2 | Branched poly(ethylenimine) [PEI] | – | – | less than 10%
